Assay results published in patent US7897582B2, “Oligonucleotide compositions and methods for the modulation of the expression of B7 protein” (Isis Pharmaceuticals, Inc., priority 2003, dated 2011).
Strand notation (5' to 3'): a small letter for the sugar, then the base; units joined by * are phosphorothioate-linked, units joined directly phosphodiester-linked; [ ] holds rarer units or linkages, { } end groups; capitals alone tell only the bases. e = 2'-O-(2-methoxyethyl) (MOE); [5mC] = 5-methylcytosine; d = 2'-deoxy (DNA)

Columns and labels:
Human B7-1 mRNA = Human B7-1 mRNA expression in COS-7 cells, screened as in Example 4; format: cell-based; conditions: human B7-1 mRNA; Table 7
hB7-2 mRNA = test: Ribonuclease protection assay of hB7-2 mRNA in transfected COS-7 cells; format: cell-based, human; conditions: human B7-2 mRNA; Table 12
Description: For ribonuclease protection assays, cells were harvested 18 hours after completion of oligonucleotide treatment using a Totally RNA™ kit (Ambion, Austin, Tex.). The probes for the assay were generated from plasmids pcB7-2 (linearized by digestion with Bgl II) and pTRI-b-actin (Ambion Inc., Austin, Tex.). In vitro transcription of the linearized plasmid from the SP6 promoter was performed in the presence of α-^32P-UTP (800 Ci/mmole) yielding an antisense RNA complementary to the 3′ end of B7-2 (position 1044-1391). The probe was gel-purified after treatment with DNase I to remove DNA template. Ribonuclease protection assays were carried out using an RPA II™ kit (Ambion) according to the manufacturer's directions. Total RNA (5 μg) was hybridized overnight, at 42° C., with 10^5 cpm of the B7-2 probe or a control beta-actin probe. The hybridization reaction was then treated, at 37° C. for 30 minutes, with 0.4 units of RNase A and 2 units of RNase T1. Protected RNA was precipitated, resuspended in 10 μL of gel loading buffer and electrophoresed on a 6% acrylamide gel with 50% w/v urea at 20 W. The gel was then exposed and the lanes quantitated using a PhosphorImager (Molecular Dynamics, Sunnyvale, Calif.) essentially according to the manufacturer's instructions.
The oligonucleotides were screened as described in Example 4 except that the concentration of oligonucleotide was varied as shown in Table 13. Mismatch control oligonucleotides were included.

| Substance | % mRNA EXPRESSION (hB7-2 mRNA) [%] | also measured |
| --- | --- | --- |
| 13805 (antisense C^{S}C^{S}T^{S}G^{S}C^{S}C^{S}T^{S}C^{S}C^{S}G^{S}T^{S}G^{S}T^{S}G^{S}T^{S}G^{S}G^{S}C^{S}C^{S}C; as printed in the source, key not given here) [compound 13805] | – | % mRNA EXPRESSION (Human B7-1 mRNA): 46%; % mRNA INHIBITION (Human B7-1 mRNA): 54% |
| 22285 (e[5mC]*eA*eG*eA*eA*dG*d[5mC]*dA*dA*dG*dG*dT*dG*dG*dT*eA*eA*eG*eA*eA; antisense) [compound 22285] | 74 | % mRNA INHIBITION (hB7-2 mRNA): 26% |
| 22286 (eG*e[5mC]*e[5mC]*eT*eG*dT*d[5mC]*d[5mC]*dA*d[5mC]*dT*dG*dT*dA*dG*e[5mC]*eT*e[5mC]*e[5mC]*eA; antisense) [compound 22286] | 39 | – |
| 22288 (eT*e[5mC]*eA*eG*eA*dG*dG*dA*dG*d[5mC]*dA*dG*d[5mC]*dA*d[5mC]*e[5mC]*eA*eG*eA*eG; antisense) [compound 22288] | 38 | – |
| 22289 (eT*eG*eG*e[5mC]*eA*dT*dG*dG*d[5mC]*dA*dG*dG*dT*d[5mC]*dT*eG*e[5mC]*eA*eG*eT; antisense) [compound 22289] | 41 | – |
| 22290 (eA*eG*e[5mC]*eT*e[5mC]*dA*d[5mC]*dT*d[5mC]*dA*dG*dG*d[5mC]*dT*dT*eT*eG*eG*eT*eT; antisense) [compound 22290] | 42 | – |
| 22291 (eT*eG*e[5mC]*e[5mC]*eT*dA*dA*dG*dT*dA*dT*dA*d[5mC]*d[5mC]*dT*e[5mC]*eA*eT*eT*e[5mC]; antisense) [compound 22291] | 41 | – |
| 22292 (e[5mC]*eT*eG*eT*e[5mC]*dA*dA*dA*dT*dT*dT*d[5mC]*dT*d[5mC]*dT*eT*eT*eG*e[5mC]*e[5mC]; antisense) [compound 22292] | 39 | – |
| 22293 (e[5mC]*eA*eT*eA*eT*dA*d[5mC]*dT*dT*dG*dG*dA*dA*dT*dG*eA*eA*e[5mC]*eA*e[5mC]; antisense) [compound 22293] | 43 | – |
| 22295 (eT*eG*eA*eT*e[5mC]*dT*dG*dA*dA*dG*dA*dT*dT*dG*dT*eG*eA*eA*eG*eT; antisense) [compound 22295] | 66 | % mRNA INHIBITION (hB7-2 mRNA): 34% |
| 22296 (eA*eA*eG*e[5mC]*e[5mC]*d[5mC]*dT*dT*dG*dT*d[5mC]*d[5mC]*dT*dT*dG*eA*eT*e[5mC]*eT*eG; antisense) [compound 22296] | 42 | – |
| 22297 (eT*eG*eT*eG*eA*dT*dG*dG*dA*dT*dG*dA*dT*dA*d[5mC]*eA*eT*eT*eG*eA; antisense) [compound 22297] | 54 | % mRNA INHIBITION (hB7-2 mRNA): 46% |
| 22298 (eT*e[5mC]*eA*eG*eG*dT*dT*dG*dA*d[5mC]*dT*dG*dA*dA*dG*eT*eT*eA*eG*e[5mC]; antisense) [compound 22298] | 53 | % mRNA INHIBITION (hB7-2 mRNA): 47% |
| 22299 (eG*eT*eG*eT*eA*dT*dA*dG*dA*dT*dG*dA*dG*d[5mC]*dA*eG*eG*eT*e[5mC]*eA; antisense) [compound 22299] | 46 | – |
| 22300 (eT*e[5mC]*eT*eG*eT*dG*dA*d[5mC]*dA*dT*dT*dA*dT*d[5mC]*dT*eT*eG*eA*eG*eA; antisense) [compound 22300] | 39 | – |
| 22301 (eA*eA*eG*eA*eT*dA*dA*dA*dA*dG*d[5mC]*d[5mC]*dG*d[5mC]*dG*eT*e[5mC]*eT*eT*eG; antisense) [compound 22301] | 51 | – |
| 22302 (eA*eG*eA*eA*eA*dA*d[5mC]*d[5mC]*dA*dT*d[5mC]*dA*d[5mC]*dA*d[5mC]*eA*eT*eA*eT*eA; antisense) [compound 22302] | 41 | – |
